Patent US10487093B2, “Heterocyclic compounds, in particular 2-oxo-4,4,5,5,6,6,7,7-octahydrobenzoxazole derivatives, and their use as antibacterial compounds” (priority 2016, dated 2019)
Values after ≈ are worked out from the molar mass of the structure shown. Where two headings read alike, the source gives them in different places.

How the values were obtained:
Type in all cases: cell-based
[1] = system: strains of Peptostreptococcus anaerobius; assay: MIC against anaerobes, agar dilution (CLSI), clinical isolates
[2] = system: strains of Peptoniphilus harei; assay: as above; conditions: Peptoniphilus harei, read-out: MIC
[3] = system: strains of Propionibacterium acnes; assay: as above; conditions: Cutibacterium acnes
[4] = system: Acinetobacter baumannii NCTC 13420; assay: MIC, broth microdilution (CLSI) versus planktonic bacteria; conditions: NCTC13420; Acinetobacter baumannii NCTC 13420; 16-20 h; mode of three independent experiments; read-out: MIC, Ab NCTC 13420
[5] = system: strains of Finegoldia magna; assay: MIC against anaerobes, agar dilution (CLSI), clinical isolates; conditions: Finegoldia magna, read-out: MIC
[6] = system: strains of Clostridium perfringens; assay: microbe, parasite or virus in culture
[7] = system: strains of Bacteroides thetaiotaomicron; assay: microbe, parasite or virus in culture
[8] = system: Enterobacter cloacae NCTC 13406; assay: MIC, broth microdilution (CLSI) versus planktonic bacteria; conditions: NCTC13406; Enterobacter cloacae NCTC 13406; 16-20 h; mode of three independent experiments; read-out: MIC, Ecl NCTC 13406
[9] = system: strains of Parvimonas micra; assay: MIC against anaerobes, agar dilution (CLSI), clinical isolates
[10] = system: strains of Prevotella melaninogenica; assay: as above
[11] = system: Bacteroides fragilis ATCC 25285; assay: MIC against anaerobes, agar dilution (CLSI), reference strain; conditions: ATCC25285, agar dilution, Brucella blood agar, 35° C., 48 h, anaerobic conditions, read-out: MIC, B. fragilis ATCC 25285
[12] = system: Bacteroides thetaiotaomicron ATCC 29741; assay: microbe, parasite or virus in culture; conditions: ATCC29741, agar dilution, Brucella blood agar, 35° C., 48 h, anaerobic conditions, read-out: MIC, B. thetaiotaomicron ATCC
[13] = system: Clostridium difficile ATCC 700057; assay: MIC against anaerobes, agar dilution (CLSI), reference strain; conditions: Clostridioides difficile, ATCC700057, 48 h, read-out: MIC, C. difficile ATCC 700057
[14] = system: strains of Bacteroides fragilis; assay: MIC against anaerobes, agar dilution (CLSI), clinical isolates
[15] = system: strains of Prevotella bivia; assay: as above

Compound: Cc1ccc2ncc(=O)n(CCN[C@H]3CC[C@H]4[C@@H](C3)OC(=O)N4c3ccc4c(n3)NC(=O)CO4)c2c1 [Compound 27, 1-(2-{[(3aS,6S,7aR)-2-oxo-3-{3-oxo-2H,3H,4H-pyrido[3,2-b][1,4]oxazin-6-yl}-octahydro-1,3-benzoxazol-6-yl]amino}ethyl)-7-methyl-1,2-dihydroquinoxalin-2-one]
- MIC ([1]; Peptostreptococcus anaerobius strain 1): < 1 µg/mL
- MIC ([1]; Peptostreptococcus anaerobius strain 2): < 1 µg/mL
- MIC ([1]; Peptostreptococcus anaerobius strain 3): < 1 µg/mL
- MIC ([1]; Peptostreptococcus anaerobius strain 4): 4 to 16 µg/mL (≈ 8.15 to 32.6 µM)
- MIC ([1]; Peptostreptococcus anaerobius strain 5): < 1 µg/mL
- MIC ([1]; Peptostreptococcus anaerobius strain 6): < 1 µg/mL
- MIC ([1]; Peptostreptococcus anaerobius strain 7): < 1 µg/mL
- MIC ([1]; Peptostreptococcus anaerobius strain 8): < 1 µg/mL
- MIC ([1]; Peptostreptococcus anaerobius strain 9): < 1 µg/mL
- MIC ([1]; Peptostreptococcus anaerobius strain 10): < 1 µg/mL
- MIC ([2]; Peptoniphilus harei strain 1): < 1 µg/mL
- MIC ([2]; Peptoniphilus harei strain 2): < 1 µg/mL
- MIC ([2]; Peptoniphilus harei strain 3): < 1 µg/mL
- MIC ([2]; Peptoniphilus harei strain 4): < 1 µg/mL
- MIC ([2]; Peptoniphilus harei strain 5): < 1 µg/mL
- MIC ([2]; Peptoniphilus harei strain 6): < 1 µg/mL
- MIC ([2]; Peptoniphilus harei strain 7): < 1 µg/mL
- MIC ([2]; Peptoniphilus harei strain 8): < 1 µg/mL
- MIC ([2]; Peptoniphilus harei strain 9): < 1 µg/mL
- MIC ([2]; Peptoniphilus harei strain 10): < 1 µg/mL
- MIC ([2]; Peptoniphilus harei strain 11): < 1 µg/mL
- MIC ([2]; Peptoniphilus harei strain 12): < 1 µg/mL
- MIC ([3]; Propionibacterium acnes strain 1): 1 to 4 µg/mL (≈ 2.04 to 8.15 µM)
- MIC ([3]; Propionibacterium acnes strain 2): < 1 µg/mL
- MIC ([3]; Propionibacterium acnes strain 3): < 1 µg/mL
- MIC ([3]; Propionibacterium acnes strain 4): < 1 µg/mL
- MIC ([3]; Propionibacterium acnes strain 5): 1 to 4 µg/mL (≈ 2.04 to 8.15 µM)
- MIC ([3]; Propionibacterium acnes strain 6): 1 to 4 µg/mL (≈ 2.04 to 8.15 µM)
- MIC ([3]; Propionibacterium acnes strain 7): 1 to 4 µg/mL (≈ 2.04 to 8.15 µM)
- MIC ([3]; Propionibacterium acnes strain 8): 1 to 4 µg/mL (≈ 2.04 to 8.15 µM)
- MIC ([3]; Propionibacterium acnes strain 9): 1 to 4 µg/mL (≈ 2.04 to 8.15 µM)
- MIC ([3]; Propionibacterium acnes strain 10): 1 to 4 µg/mL (≈ 2.04 to 8.15 µM)
- MIC ([3]; Propionibacterium acnes strain 11): < 1 µg/mL
- MIC ([3]; Propionibacterium acnes strain 12): 1 to 4 µg/mL (≈ 2.04 to 8.15 µM)
- MIC [4]: 1 to 10 µg/mL (≈ 2.04 to 20.4 µM)
- MIC ([5]; Finegoldia magna strain 1): 1 to 4 µg/mL (≈ 2.04 to 8.15 µM)
- MIC ([5]; Finegoldia magna strain 2): 16 to 64 µg/mL (≈ 32.6 to 130 µM)
- MIC ([5]; Finegoldia magna strain 3): 1 to 4 µg/mL (≈ 2.04 to 8.15 µM)
- MIC ([5]; Finegoldia magna strain 4): 16 to 64 µg/mL (≈ 32.6 to 130 µM)
- MIC ([5]; Finegoldia magna strain 5): 16 to 64 µg/mL (≈ 32.6 to 130 µM)
- MIC ([5]; Finegoldia magna strain 6): 16 to 64 µg/mL (≈ 32.6 to 130 µM)
- MIC ([5]; Finegoldia magna strain 7): > 64 µg/mL
- MIC ([5]; Finegoldia magna strain 8): 1 to 4 µg/mL (≈ 2.04 to 8.15 µM)
- MIC ([5]; Finegoldia magna strain 9): > 64 µg/mL
- MIC ([5]; Finegoldia magna strain 10): 4 to 16 µg/mL (≈ 8.15 to 32.6 µM)
- MIC ([5]; Finegoldia magna strain 11): 16 to 64 µg/mL (≈ 32.6 to 130 µM)
- MIC ([5]; Finegoldia magna strain 12): 16 to 64 µg/mL (≈ 32.6 to 130 µM)
- MIC ([6]; Clostridium perfringens strain 1): < 1 µg/mL
- MIC ([6]; Clostridium perfringens strain 2): < 1 µg/mL
- MIC ([6]; Clostridium perfringens strain 3): < 1 µg/mL
- MIC ([6]; Clostridium perfringens strain 4): < 1 µg/mL
- MIC ([6]; Clostridium perfringens strain 5): < 1 µg/mL
- MIC ([6]; Clostridium perfringens strain 6): < 1 µg/mL
- MIC ([6]; Clostridium perfringens strain 7): < 1 µg/mL
- MIC ([6]; Clostridium perfringens strain 8): 1 to 4 µg/mL (≈ 2.04 to 8.15 µM)
- MIC ([6]; Clostridium perfringens strain 9): < 1 µg/mL
- MIC ([6]; Clostridium perfringens strain 10): < 1 µg/mL
- MIC ([6]; Clostridium perfringens strain 11): < 1 µg/mL
- MIC ([7]; Bacteroides thetaiotaomicron strain 1, read-out: MIC): 4 to 16 µg/mL (≈ 8.15 to 32.6 µM)
- MIC ([7]; Bacteroides thetaiotaomicron strain 2, read-out: MIC): 1 to 4 µg/mL (≈ 2.04 to 8.15 µM)
- MIC ([7]; Bacteroides thetaiotaomicron strain 3, read-out: MIC): 4 to 16 µg/mL (≈ 8.15 to 32.6 µM)
- MIC ([7]; Bacteroides thetaiotaomicron strain 4, read-out: MIC): 4 to 16 µg/mL (≈ 8.15 to 32.6 µM)
- MIC ([7]; Bacteroides thetaiotaomicron strain 5, read-out: MIC): 1 to 4 µg/mL (≈ 2.04 to 8.15 µM)
- MIC ([7]; Bacteroides thetaiotaomicron strain 6, read-out: MIC): 4 to 16 µg/mL (≈ 8.15 to 32.6 µM)
- MIC ([7]; Bacteroides thetaiotaomicron strain 7, read-out: MIC): 4 to 16 µg/mL (≈ 8.15 to 32.6 µM)
- MIC ([7]; Bacteroides thetaiotaomicron strain 8, read-out: MIC): 1 to 4 µg/mL (≈ 2.04 to 8.15 µM)
- MIC ([7]; Bacteroides thetaiotaomicron strain 9, read-out: MIC): < 1 µg/mL
- MIC ([7]; Bacteroides thetaiotaomicron strain 10, read-out: MIC): 1 to 4 µg/mL (≈ 2.04 to 8.15 µM)
- MIC ([7]; Bacteroides thetaiotaomicron strain 11, read-out: MIC): 4 to 16 µg/mL (≈ 8.15 to 32.6 µM)
- MIC [8]: 1 to 10 µg/mL (≈ 2.04 to 20.4 µM)
- MIC ([9]; Parvimonas micra strain 1): > 64 µg/mL
- MIC ([9]; Parvimonas micra strain 2): 16 to 64 µg/mL (≈ 32.6 to 130 µM)
- MIC ([9]; Parvimonas micra strain 3): > 64 µg/mL
- MIC ([9]; Parvimonas micra strain 4): > 64 µg/mL
- MIC ([9]; Parvimonas micra strain 5): > 64 µg/mL
- MIC ([9]; Parvimonas micra strain 6): 1 to 4 µg/mL (≈ 2.04 to 8.15 µM)
- MIC ([9]; Parvimonas micra strain 7): 16 to 64 µg/mL (≈ 32.6 to 130 µM)
- MIC ([9]; Parvimonas micra strain 8): 16 to 64 µg/mL (≈ 32.6 to 130 µM)
- MIC ([9]; Parvimonas micra strain 9): 16 to 64 µg/mL (≈ 32.6 to 130 µM)
- MIC ([9]; Parvimonas micra strain 10): 16 to 64 µg/mL (≈ 32.6 to 130 µM)
- MIC ([9]; Parvimonas micra strain 11): 16 to 64 µg/mL (≈ 32.6 to 130 µM)
- MIC ([9]; Parvimonas micra strain 12): 16 to 64 µg/mL (≈ 32.6 to 130 µM)
- MIC ([10]; Prevotella melaninogenica strain 1): 1 to 4 µg/mL (≈ 2.04 to 8.15 µM)
- MIC ([10]; Prevotella melaninogenica strain 2): < 1 µg/mL
- MIC ([10]; Prevotella melaninogenica strain 3): < 1 µg/mL
- MIC ([10]; Prevotella melaninogenica strain 4): < 1 µg/mL
- MIC ([10]; Prevotella melaninogenica strain 5): < 1 µg/mL
- MIC ([10]; Prevotella melaninogenica strain 6): < 1 µg/mL
- MIC ([10]; Prevotella melaninogenica strain 7): < 1 µg/mL
- MIC ([10]; Prevotella melaninogenica strain 8): < 1 µg/mL
- MIC ([10]; Prevotella melaninogenica strain 9): < 1 µg/mL
- MIC ([10]; Prevotella melaninogenica strain 10): 1 to 4 µg/mL (≈ 2.04 to 8.15 µM)
- MIC ([10]; Prevotella melaninogenica strain 11): < 1 µg/mL
- MIC [11]: 4 to 16 µg/mL (≈ 8.15 to 32.6 µM)
- MIC [12]: 1 to 4 µg/mL (≈ 2.04 to 8.15 µM)
- MIC [13]: 1 to 4 µg/mL (≈ 2.04 to 8.15 µM)
- MIC ([14]; Bacteroides fragilis strain 1): 16 to 64 µg/mL (≈ 32.6 to 130 µM)
- MIC ([14]; Bacteroides fragilis strain 2): 1 to 4 µg/mL (≈ 2.04 to 8.15 µM)
- MIC ([14]; Bacteroides fragilis strain 3): 1 to 4 µg/mL (≈ 2.04 to 8.15 µM)
- MIC ([14]; Bacteroides fragilis strain 4): 1 to 4 µg/mL (≈ 2.04 to 8.15 µM)
- MIC ([14]; Bacteroides fragilis strain 5): 1 to 4 µg/mL (≈ 2.04 to 8.15 µM)
- MIC ([14]; Bacteroides fragilis strain 6): 1 to 4 µg/mL (≈ 2.04 to 8.15 µM)
- MIC ([14]; Bacteroides fragilis strain 7): 4 to 16 µg/mL (≈ 8.15 to 32.6 µM)
- MIC ([14]; Bacteroides fragilis strain 8): 1 to 4 µg/mL (≈ 2.04 to 8.15 µM)
- MIC ([14]; Bacteroides fragilis strain 9): 1 to 4 µg/mL (≈ 2.04 to 8.15 µM)
- MIC ([14]; Bacteroides fragilis strain 10): 1 to 4 µg/mL (≈ 2.04 to 8.15 µM)
- MIC ([14]; Bacteroides fragilis strain 11): 1 to 4 µg/mL (≈ 2.04 to 8.15 µM)
- MIC ([14]; Bacteroides fragilis strain 12): 1 to 4 µg/mL (≈ 2.04 to 8.15 µM)
- MIC ([15]; Prevotella bivia strain 1): < 1 µg/mL
- MIC ([15]; Prevotella bivia strain 2): < 1 µg/mL
- MIC ([15]; Prevotella bivia strain 3): 1 to 4 µg/mL (≈ 2.04 to 8.15 µM)
- MIC ([15]; Prevotella bivia strain 4): 1 to 4 µg/mL (≈ 2.04 to 8.15 µM)
- MIC ([15]; Prevotella bivia strain 5): < 1 µg/mL
- MIC ([15]; Prevotella bivia strain 6): 1 to 4 µg/mL (≈ 2.04 to 8.15 µM)
- MIC ([15]; Prevotella bivia strain 7): 1 to 4 µg/mL (≈ 2.04 to 8.15 µM)
- MIC ([15]; Prevotella bivia strain 8): < 1 µg/mL
- MIC ([15]; Prevotella bivia strain 9): < 1 µg/mL
- MIC ([15]; Prevotella bivia strain 10): < 1 µg/mL
